PubChem BioAssay (NCI)
“And” between values parts separate entries of the source, which are not always exact repeats. Equal entries are not always repeated.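 Five concentrations, 48 hours, 96-well plates. GI50 is the concentration that inhibits growth by half. At the TGI there is no net growth.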

Experiments:
Test in all cases: NCI anticancer screen, dose series, 48 h
[1] = tested on: SK-OV-3 ovarian
[2] = tested on: SK-MEL-2 melanoma
[3] = tested on: CAKI-1 renal
[4] = tested on: LOX IMVI melanoma
[5] = tested on: SW-620 colon
[6] = tested on: MOLT-4 leukemia
[7] = tested on: KM12 colon
[8] = tested on: SF-268 CNS
[9] = tested on: NCI-H522 lung
[10] = tested on: SNB-75 CNS

| Structure (SMILES) | GI50 [1] [µM] | TGI [1] | GI50 [2] [µM] | TGI [2] | GI50 [3] [µM] | TGI [3] | GI50 [4] [µM] | TGI [4] | GI50 [5] [µM] | TGI [5] | GI50 [6] [µM] | GI50 [7] [µM] | TGI [7] | GI50 [8] [µM] | TGI [8] | GI50 [9] [µM] | TGI [9] | GI50 [10] [µM] | TGI [10] [µM] | TGI [6] [µM] |
| --- | --- | --- | --- | --- | --- | --- | --- | --- | --- | --- | --- | --- | --- | --- | --- | --- | --- | --- | --- | --- |
| Clc1ccc(/C=C/c2cc(N3CCOCC3)c3cc(Cl)c(Cl)cc3n2)cc1 | > 100 | > 100 µM | > 100 | > 100 µM | > 100 | > 100 µM | > 100 | > 100 µM | > 100 | > 100 µM | 0.428 | > 51.4 | > 100 µM | > 100 | > 100 µM | 1.86 | > 100 µM | > 100 | > 100 |  |
| CC(C)c1c(C(=O)Nc2ccccc2)c(-c2ccccc2)c(-c2ccc(F)cc2)n1CC[C@@H]1CC=CC(=O)O1 | 3.39 | 11.9 µM | 1.87 | 3.43 µM | 1.6 | 3.45 µM | 1.63 | 3.06 µM | 1.71 | 3.52 µM | 2.62 | 1.65 | 3.24 µM | 1.81 | 3.65 µM | 1.5 | 2.98 µM | 1.43 | 2.78 | 6.98 |
| O=C(Nc1ccccc1)c1nn(-c2cc(S(=O)(=O)O)c([N+](=O)[O-])cc2Cl)[n+](-c2cc(S(=O)(=O)[O-])c([N+](=O)[O-])cc2Cl)n1 |  | > 100 µM |  | > 100 µM |  | > 100 µM |  | > 100 µM |  | > 100 µM |  |  | > 100 µM |  | > 100 µM |  | > 100 µM |  | > 100 | > 100 |
| COc1cc2c3c(n(CCCN(CCN)CCCn4c5c(c6cc(OC)c(OC)cc6c4=O)C(=O)c4cc6c(cc4-5)OCO6)c(=O)c2cc1OC)-c1cc2c(cc1C3=O)OCO2 | 1.41 | > 91.6 µM | 21.1 | > 100 µM | 0.271 | 3.23 µM | 0.57 | 6.32 µM | 0.719 | > 70.7 µM | 0.0846 | 4.04 | > 37 µM | 0.794 | > 29.3 µM | 0.343 | 3.88 µM | 2.54 | > 100 |  |
| C=C(C)C1Cc2c(cc(OC)c3c(=O)c4cccc(O)c4oc23)O1 (stereo not given) |  | 33.7 µM |  | 42.4 µM |  | 30.2 µM |  | 29.6 µM |  | > 100 µM |  |  | > 100 µM |  | 43.4 µM |  | 33.8 µM |  | 29.9 | > 100 |
| Oc1ccc(CN2CCC(N3CCOCC3)CC2)c2cccnc12 | > 100 | > 100 µM | 52.8 | > 100 µM | 29.2 | > 100 µM | 29.9 | > 100 µM | 60 | > 100 µM | 30.9 | 46.9 | > 100 µM | 16.3 | > 100 µM | 26.5 | 61.2 µM | 11.9 | > 100 | > 100 |
| CN(C)CCN(C)CC1COC(C)(C)O1 (stereo not given) |  | > 100 µM |  | > 100 µM |  | > 100 µM |  | > 100 µM |  | > 100 µM |  |  | > 100 µM |  | > 100 µM |  | > 100 µM |  | > 100 | > 100 |
| O=c1cc(-c2ccccc2)oc2cc(O)c(O)c(O)c12 | 59.6 | > 100 µM | 53.9 | > 100 µM | 4.57 | 19 µM | 28 | > 100 µM | 17.8 | > 100 µM | 53.7 | 18.2 | 62.5 µM | 4.55 | 29.6 µM | 13.3 | > 100 µM | > 100 | > 100 | > 100 |
| N/C(=C\C(=O)n1nc(-c2ccccc2)cc1N)c1ccccc1 | 5.31 | 39 µM | 4.96 | 26.2 µM | 5.96 | 80.4 µM | 6.54 | 31.4 µM | 3.59 | 17.2 µM | 3.72 | 2.9 | 14.1 µM | 5.14 | 31.7 µM | 5.24 | 27.9 µM | 3.72 | 52.1 | 17.8 |
| Cn1ccnc1C(=O)/C=C/c1ccc(C(=O)Nc2ccc(S(F)(F)(F)(F)F)cc2)cc1 | > 14.3 | > 14.3 µM | > 14.3 | > 14.3 µM | 2.1 | > 14.3 µM | 1.01 | 3.25 µM | 0.54 | 5.58 µM | 1.72 | 2.77 | > 14.3 µM | 3.09 | > 14.3 µM | 4.69 | > 14.3 µM | 0.761 | > 14.3 | 10.1 |
| S=C(N/N=C(/c1ccccc1)c1ccccn1)N1CCCCC1 | < 0.001 | 2.36 µM and 1.24 µM | < 0.001 | 2.01 µM and 2.36 µM | 0.107 | 1.66 µM and 2.33 µM |  | 1.95 µM and 1.32 µM | < 0.001 | 1.23 µM and 2.96 µM | < 0.001 | 0.00123 | 1.79 µM and 2.11 µM | 0.323 | 2.5 µM and 5.35 µM | 0.422 | 3.13 µM and 1.71 µM |  | 2.92 |  |
